The text below walks through data of article PMC5706701, “Development of a homogenous high-throughput assay for inositol hexakisphosphate kinase 1 activity” (PLoS ONE, 2017).

Counter-ions that a name gives are not always drawn. Like-named read-outs stand apart in the source and are kept apart here.

The target of the assay is T1, Human IP6K1 (Homo sapiens, UniProt Q92551).
T1 construct: GST (N, cleaved yes); made in house; host or cells: C43 E. coli, pGEX-6P-2
The assay can be described thus: IP6K1 high-throughput screen of the Sigma LOPAC (ADP-Glo Max, single point).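 Note: final compound concentration 10µM in 5% DMSO.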 Format: biochemical. (ADP-Glo turns the ADP formed in a reaction into a luminescent signal.)

Where [1] appears, read: LOPAC single-point screen, ADP-Glo Max luminescence raw signal per well.
Setting [2] is: LOPAC single-point screen, Z-score relative to plate average and StDev.
The mark [3] stands for this setting: LOPAC single-point screen, Z-score from plate average and StDev.
[4] abbreviates: LOPAC single-point screen, Z-score from raw signal with plate average and StDev.
[5] abbreviates: Sigma LOPAC single-point screen, ADP-Glo Max raw signal per well.
Setting [6] is: Sigma LOPAC single-point screen, Z-score from plate average and StDev.
Setting [7] is: LOPAC single-point screen, ADP-Glo Max raw signal per well.
The mark [8] stands for this setting: LOPAC single-point screen, Z-score against plate average and StDev.

T1 sequence (Q92551 whole entry): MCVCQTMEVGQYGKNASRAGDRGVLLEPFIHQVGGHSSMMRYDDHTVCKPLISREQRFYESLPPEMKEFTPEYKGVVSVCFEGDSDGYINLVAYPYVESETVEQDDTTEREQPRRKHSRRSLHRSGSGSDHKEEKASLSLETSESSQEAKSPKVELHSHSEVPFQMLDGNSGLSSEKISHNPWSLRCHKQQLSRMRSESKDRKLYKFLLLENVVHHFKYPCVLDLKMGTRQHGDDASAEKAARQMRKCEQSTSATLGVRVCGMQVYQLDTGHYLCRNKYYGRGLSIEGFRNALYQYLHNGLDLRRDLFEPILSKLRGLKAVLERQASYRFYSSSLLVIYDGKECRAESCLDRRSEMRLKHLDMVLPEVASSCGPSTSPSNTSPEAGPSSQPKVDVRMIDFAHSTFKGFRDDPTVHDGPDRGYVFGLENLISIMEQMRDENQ

`C=CCN1CC[C@@]2(C)c3cc(O)ccc3C[C@@H]1[C@@H]2C.Cl` (racemic) [(±)-N-Allylnormetazocine hydrochloride]: the “Raw Signal” value under setting [1] was found to be 52910. Besides, the Z-score under setting [2] is -0.8812.

Regarding `CCCCS(=N)(=O)CCC(N)C(=O)O` (racemic) [DL-Buthionine-[S,R]-sulfoximine], the “Raw Signal” value under setting [1] was 66724. In addition, the Z-score under setting [3] is listed as 1.552.

As for `COc1cc2nc(N3CCN(C(=O)OCc4ccccc4)[C@H](C(=O)NC(C)(C)C)C3)nc(N)c2cc1OC` [L-765,314], the Z-score under setting [4] was -0.2706.

As to `C[C@H](CCC(=O)NCCS(=O)(=O)O)[C@H]1CC[C@H]2[C@@H]3[C@H](O)C[C@@H]4C[C@H](O)CC[C@]4(C)[C@H]3C[C@H](O)[C@]12C` [Sodium Taurocholate], the “Raw Signal” value is on record as 58351 and the Z-score turned out to be 0.07713.

Consider `C#CCN[C@H](C)Cc1ccccc1.Cl` [R-(-)-Desmethyldeprenyl hydrochloride], for which the “Raw Signal” value under setting [1] is 52026. This molecule also registered a Z-score under setting [2] of -0.6379.

In the case of `CC[C@]1(O)C[C@H]2CN(CCc3c([nH]c4ccccc34)[C@@](C(=O)OC)(c3cc4c(cc3OC)N(C=O)[C@H]3[C@@](O)(C(=O)OC)[C@H](OC(C)=O)[C@]5(CC)C=CCN6CC[C@]43[C@@H]65)C2)C1` [Vincristine sulfate], the “Raw Signal” value under setting [5] is given as 57865. Besides, the Z-score under setting [6] worked out at 0.3577.

As to `O=C(O)/C=C\C(=O)O.O=C(O)/C=C\C(=O)O.c1cc(CN2CCCCC2)cc(OCCCNc2nc3ccccc3s2)c1` [SKF 95282 dimaleate], the “Raw Signal” value under setting [7] is given as 54088. Under setting [4], this molecule had a Z-score of -0.3761.

Turning to `CCN(CC)CCNC(=O)c1cc(S(C)(=O)=O)ccc1OC` [Tiapride hydrochloride], the “Raw Signal” value under setting [5] is listed as 58277. This molecule also came in with a Z-score under setting [6] of 0.4378.

With `C[N+](C)(C)CCCCCC[N+](C)(C)C` [Hexamethonium bromide], the “Raw Signal” value under setting [7] worked out at 55496. Under setting [8], this molecule came in with a Z-score of 0.06681.

For `CN1C[C@H](C(=O)N[C@]2(C)O[C@@]3(O)[C@@H]4CCCN4C(=O)[C@H](Cc4ccccc4)N3C2=O)C[C@@H]2c3cccc4[nH]cc(c34)C[C@H]21` [Dihydroergotamine methanesulfonate], the “Raw Signal” value under setting [1] is 48691. For the same molecule, the Z-score under setting [2] is -1.315.

With `CCN(c1nc(N)c(C(=O)NC(=N)N)nc1Cl)C(C)C` [5-(N-Ethyl-N-isopropyl)amiloride], the “Raw Signal” value under setting [7] is 57414. Further, the Z-score under setting [8] was -0.08791.

`S=C(NC1CCCCC1)N1CCC(c2cnc[nH]2)CC1` [Thioperamide maleate]: under setting [7], the “Raw Signal” value is reported as 54981. Also, the Z-score under setting [4] was -0.2026.

With `Cl.Fc1ccc(CN(C2=NCCN2)c2c(Cl)cccc2Cl)cc1` [IMID-4F hydrochloride], the “Raw Signal” value under setting [5] worked out at 60859. For the same molecule, the Z-score under setting [6] came out at 1.156.

As for `COc1ccc(Cc2nccc3cc(OC)c(OC)cc23)cc1OC` [Papaverine hydrochloride], the “Raw Signal” value under setting [5] is listed as 61808. In addition, under setting [6], the Z-score worked out at 1.246.

Consider `Cc1cccc(/C=C/c2ccccc2)n1` [SIB 1893], for which the “Raw Signal” value under setting [7] turned out to be 55669. The molecule also returned a Z-score under setting [8] of -0.06893.

As to `C[C@@H]1O[C@@H]1P(=O)(O)O` [Phosphomycin disodium], the “Raw Signal” value under setting [1] was 62776. Besides, the Z-score under setting [3] turned out to be 1.408.

For the molecule `Cl.NCCc1ccc(O)cc1` [4-Hydroxyphenethylamine hydrochloride], the “Raw Signal” value under setting [7] turned out to be 54724. Under setting [4], this molecule had a Z-score of -0.2525.

In the case of `O=c1[nH]c2ccccc2c2ccccc12` [6(5H)-Phenanthridinone], the “Raw Signal” value under setting [7] turned out to be 55315. Besides, the Z-score under setting [4] is given as -0.1377.

Take `Cc1cn[nH]c1.Cl` [4-Methylpyrazole hydrochloride]: the “Raw Signal” value under setting [1] is listed as 63526. For the same molecule, the Z-score under setting [3] was 1.5345.

Take `CN(C)CCOC(c1ccccc1)c1ccccc1` [Diphenhydramine hydrochloride]: under setting [7], the “Raw Signal” value worked out at 54459. Under setting [4], this molecule yielded a Z-score of -0.1438.

As to `COc1ccc(CCN(C)CCCC(C#N)(c2cc(OC)c(OC)c(OC)c2)C(C)C)cc1OC.Cl` (racemic) [(±)-Methoxyverapamil hydrochloride], under setting [7], the “Raw Signal” value was 52492. Further, the Z-score under setting [4] is -0.3195.

As to `Nc1ccc(CCN2CCN(c3cccc(C(F)(F)F)c3)CC2)cc1` [PAPP], under setting [7], the “Raw Signal” value amounted to 56132. This molecule also showed a Z-score under setting [8] of 0.02102.

As for `CC(C)(C)c1ccc(C(O)CCCN2CCC(C(O)(c3ccccc3)c3ccccc3)CC2)cc1` (stereo not drawn) [Terfenadine], the “Raw Signal” value under setting [7] is 53926. Also, the Z-score under setting [4] is -0.4076.

In the case of `Cc1cnc(NC(=O)C2=C(O)c3ccccc3S(=O)(=O)N2C)s1` [Meloxicam sodium], under setting [7], the “Raw Signal” value is 55155. The molecule also came in with a Z-score under setting [8] of 0.128.

As to `Cc1nc(N=Nc2ccc(S(=O)(=O)O)cc2S(=O)(=O)O)c(COP(=O)(O)O)c(C=O)c1O` [PPADS], the “Raw Signal” value under setting [7] is listed as 55598. The same molecule registered a Z-score under setting [8] of -0.08273.

Turning to `Cc1ncc(CNC(=O)N(CCCl)N=O)c(N)n1` [Nimustine hydrochloride], the “Raw Signal” value under setting [7] came out at 54692. The Z-score under setting [8] came out at 0.05015.

As for `CCCN1CCC[C@H](c2cccc(O)c2)C1.Cl` [R(+)-3PPP hydrochloride], the “Raw Signal” value under setting [1] turned out to be 50646. This molecule registered a Z-score under setting [2] of -1.045.

Consider `Cc1ccccc1/C=C/C1=NCCN1` [Metrazoline oxalate], for which the “Raw Signal” value under setting [1] is 51543. Besides, under setting [2], the Z-score was -0.479.

As for `CC(C)NCC(O)c1ccc(NS(C)(=O)=O)cc1.Cl` (racemic) [(±)-Sotalol hydrochloride], the “Raw Signal” value under setting [7] is reported as 55236. This molecule returned a Z-score under setting [4] of -0.1531.

Take `CC(N)Cc1c[nH]c2ccc(O)cc12.O=C(O)/C=C\C(=O)O` (stereo not drawn) [alpha-Methyl-5-hydroxytryptamine maleate]: under setting [8], the Z-score is 0.02915.

`CC(C)COC(=O)OCN1C(=O)CN(CCN2CC(=O)N(COC(=O)OCC(C)C)C(=O)C2)CC1=O` [Sobuzoxane]: the “Raw Signal” value under setting [7] turned out to be 54088. This molecule showed a Z-score under setting [4] of -0.3761.

In the case of `CC(C)N(CCC(C(N)=O)(c1ccccc1)c1ccccn1)C(C)C` (stereo not drawn) [Disopyramide phosphate], the “Raw Signal” value under setting [7] worked out at 54365. The same molecule displayed a Z-score under setting [4] of -0.1629.

For the molecule `COC(=O)[C@H]1[C@H]2C[C@H]3c4[nH]c5ccccc5c4CCN3C[C@H]2CC[C@@H]1O` [Rauwolscine hydrochloride], the “Raw Signal” value under setting [7] was 54997. For the same molecule, under setting [4], the Z-score is -0.1995.

On to `Nc1ccn([C@H]2CC[C@@H](CO)O2)c(=O)n1` [2 ,3 -dideoxycytidine], for which the “Raw Signal” value under setting [1] is 50390. Under setting [2], this molecule displayed a Z-score of -0.9702.

Consider `CCCCCCCCCC[Si](C)(C)CCC(=O)NC(Cc1ccc(C)cc1)c1ccccc1` (stereo not drawn) [Sandoz 58-035], for which, under setting [7], the “Raw Signal” value came out at 56427. The same molecule showed a Z-score under setting [4] of -0.2617.

With `COc1ccc2c(c1)c(CC(=O)O)c(C)n2C(=O)c1ccccc1`, the “Raw Signal” value under setting [1] was found to be 53454. The molecule further gave a Z-score under setting [2] of -0.7854.

As for `NNC(=O)c1ccc(O)cc1` [4-Hydroxybenzhydrazide], the “Raw Signal” value under setting [5] is 59100. Besides, the Z-score under setting [6] came out at 0.7987.

In the case of `COc1cccc(-c2cc(=O)c3ccccc3o2)c1N` [PD 98,059], under setting [7], the “Raw Signal” value came out at 54412. Further, the Z-score under setting [4] is -0.3131.

For `Cl.NCCNC(=O)c1ncsc1-c1cccc(F)c1` [Ro 41-1049 hydrochloride], the “Raw Signal” value under setting [5] amounted to 60989. Further, the Z-score under setting [6] came out at 0.9646.

`C/C(O)=C(\C#N)C(=O)Nc1cc(Br)ccc1Br` [LFM-A13]: the “Raw Signal” value under setting [5] was 58610. For the same molecule, the Z-score under setting [6] is listed as 0.7085.

As for `NC(=O)N1c2ccccc2C=Cc2ccccc21` [Carbamazepine], the “Raw Signal” value under setting [5] worked out at 60604. This molecule yielded a Z-score under setting [6] of 0.4739.

On to `CP(=O)(O)C1=CCNCC1` [TPMPA], for which the “Raw Signal” value under setting [5] is recorded as 59668. Under setting [6], this molecule showed a Z-score of 0.708.

Turning to `NC(=NCc1ccccc1)NC(=O)c1nc(Cl)c(N)nc1N` [Benzamil hydrochloride], the “Raw Signal” value under setting [7] was 59018. Under setting [8], this molecule returned a Z-score of 0.1946.

`CC(N)(Cc1ccc(O)c(O)c1)C(=O)O` (racemic): the “Raw Signal” value under setting [1] was found to be 41540. The molecule also displayed a Z-score under setting [2] of -2.16.

Turning to `CN(C)c1cc2c(Nc3ccc4c(cnn4Cc4ccccc4)c3)ncnc2cn1` [GW2974], the “Raw Signal” value under setting [7] is reported as 53289. Also, the Z-score under setting [4] is listed as -0.3814.

For `NN=C(N)N.NN=C(N)N.O=S(=O)(O)O` [Aminoguanidine hemisulfate], under setting [7], the “Raw Signal” value amounted to 58107. The molecule further showed a Z-score under setting [8] of 0.03415.

`Nc1ncnc2c1ncn2[C@@H]1O[C@H](COP(=O)(O)CP(=O)(O)OP(=O)([O-])[O-])[C@@H](O)[C@H]1O.[Li+].[Li+]`: under setting [1], the “Raw Signal” value came out at 51012. This molecule came in with a Z-score under setting [2] of -0.5682.

With `CN(C)CCCN1c2ccccc2Sc2ccc(Cl)cc21` [Chlorpromazine hydrochloride], under setting [5], the “Raw Signal” value is recorded as 63674. Also, the Z-score under setting [6] is on record as 1.015.

As to `Cl.Clc1cc(I)cc(Cl)c1NC1=NCCN1` [p-Iodoclonidine hydrochloride], the “Raw Signal” value under setting [7] is given as 52843. Besides, under setting [4], the Z-score is recorded as -0.2605.

For the molecule `CNc1ncnc2c1ncn2[C@@H]1O[C@H](CO)[C@@H](O)[C@H]1O` [N6-Methyladenosine], the “Raw Signal” value under setting [1] is 48943. The same molecule came in with a Z-score under setting [2] of -0.9158.

On to `O=c1[nH]c2ccccc2n1C1CCN(CCCC(c2ccc(F)cc2)c2ccc(F)cc2)CC1` [Pimozide], for which the “Raw Signal” value under setting [7] is reported as 53926. The molecule further gave a Z-score under setting [8] of -0.07855.

Consider `C[C@H]1C[C@H]2[C@@H]3CCC4=CC(=O)C=C[C@]4(C)[C@@]3(F)[C@@H](O)C[C@]2(C)[C@@]1(O)C(=O)CO` [Betamethasone], for which the “Raw Signal” value under setting [7] is 58863. The Z-score under setting [8] turned out to be 0.1673.
